What was measured:
PIP5K2C = PIP5K2C (Homo sapiens, UniProt Q8TBX8); test: Kinase profiling; type: binding; settings: read-out: % Ctrl @ 1000 nM
TLK1 = TLK1 (Homo sapiens, UniProt Q9UKI8); test: Kinase profiling; type: binding; settings: read-out: % Ctrl @ 1000 nM
MAP3K15 = MAP3K15 (Homo sapiens, UniProt Q6ZN16); test: Kinase profiling; type: binding; settings: read-out: % Ctrl @ 1000 nM
MKNK1 = target: T1, MKNK1 (Homo sapiens, UniProt Q9BUB5); test: Kinase profiling; type: binding; settings: read-out: % Ctrl @ 1000 nM
T1 construct: T7 phage fusion (stated for most kinases of the panel only); made in house; host or cells: T7 phage in E. coli (BL21-derived) or HEK-293 cells

MAP3K2 = MAP3K2 (Homo sapiens, UniProt Q9Y2U5); test: Kinase profiling; type: binding; settings: read-out: % Ctrl @ 1000 nM
HPK1 = HPK1 (Homo sapiens, UniProt Q92918); test: Kinase profiling; type: binding; settings: read-out: % Ctrl @ 1000 nM
GRK1 = GRK1 (Homo sapiens, UniProt Q15835); test: Kinase profiling; type: binding; settings: read-out: % Ctrl @ 1000 nM
Sequence of GRK1 (Q15835 whole entry): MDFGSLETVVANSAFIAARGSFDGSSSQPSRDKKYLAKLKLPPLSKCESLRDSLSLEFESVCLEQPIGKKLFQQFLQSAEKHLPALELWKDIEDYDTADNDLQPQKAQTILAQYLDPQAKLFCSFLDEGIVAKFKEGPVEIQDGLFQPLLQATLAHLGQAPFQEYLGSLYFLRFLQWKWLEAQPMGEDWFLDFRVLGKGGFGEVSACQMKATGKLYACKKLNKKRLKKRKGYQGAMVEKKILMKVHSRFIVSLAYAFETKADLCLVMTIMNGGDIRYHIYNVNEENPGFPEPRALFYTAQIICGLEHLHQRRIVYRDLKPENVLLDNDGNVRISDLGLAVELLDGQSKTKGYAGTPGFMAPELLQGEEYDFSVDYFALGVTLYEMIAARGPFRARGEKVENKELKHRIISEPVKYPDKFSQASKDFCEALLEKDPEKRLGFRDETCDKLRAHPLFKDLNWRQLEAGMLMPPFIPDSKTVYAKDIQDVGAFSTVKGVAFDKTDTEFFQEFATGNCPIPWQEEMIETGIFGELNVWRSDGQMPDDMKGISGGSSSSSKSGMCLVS

NEK9 = target: T2, NEK9 (Homo sapiens, UniProt Q8TD19); test: Kinase profiling; type: binding; settings: read-out: % Ctrl @ 1000 nM
T2 construct: T7 phage fusion (said for most assays); made in house

CSNK1G1 = CSNK1G1 (Homo sapiens, UniProt Q9HCP0); test: Kinase profiling; type: binding; settings: read-out: % Ctrl @ 1000 nM
MEK2 = target: T3, MEK2 (Homo sapiens, UniProt P36507); test: Kinase profiling; type: binding; settings: read-out: % Ctrl @ 1000 nM
T3 construct: T7 phage fusion (stated for most kinases of the panel only); made in house; host or cells: T7 phage in E. coli (BL21-derived) or HEK-293 cells

PIP5K1A = PIP5K1A (Homo sapiens, UniProt Q99755); test: Kinase profiling; type: binding; settings: read-out: % Ctrl @ 1000 nM
STK16 = STK16 (Homo sapiens, UniProt O75716); test: Kinase profiling; type: binding; settings: read-out: % Ctrl @ 1000 nM
Sequence of STK16 (O75716 whole entry): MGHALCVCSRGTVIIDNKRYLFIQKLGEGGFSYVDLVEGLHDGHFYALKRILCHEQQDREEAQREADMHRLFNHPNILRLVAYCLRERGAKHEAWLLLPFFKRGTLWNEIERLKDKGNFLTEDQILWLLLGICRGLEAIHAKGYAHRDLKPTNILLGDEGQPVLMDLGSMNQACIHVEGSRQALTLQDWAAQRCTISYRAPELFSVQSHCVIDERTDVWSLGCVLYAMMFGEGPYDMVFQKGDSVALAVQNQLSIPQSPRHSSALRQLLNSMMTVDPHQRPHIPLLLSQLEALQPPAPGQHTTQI

PRKCD = PRKCD (Homo sapiens, UniProt Q05655); test: Kinase profiling; type: binding; settings: read-out: % Ctrl @ 1000 nM
STK33 = STK33 (Homo sapiens, UniProt Q9BYT3); test: Kinase profiling; type: binding; settings: read-out: % Ctrl @ 1000 nM
[1] = target: ABL1 (F317L)-phosphorylated (Homo sapiens, UniProt P00519, F317L); test: Kinase profiling; type: binding; settings: read-out: % Ctrl @ 1000 nM
CAMK1 = CAMK1 (Homo sapiens, UniProt Q14012); test: Kinase profiling; type: binding; settings: read-out: % Ctrl @ 1000 nM
CLK4 = CLK4 (Homo sapiens, UniProt Q9HAZ1); test: Kinase profiling; type: binding; settings: read-out: % Ctrl @ 1000 nM
STK39 = STK39 (Homo sapiens, UniProt Q9UEW8); test: Kinase profiling; type: binding; settings: read-out: % Ctrl @ 1000 nM
PIM1 = PIM1 (Homo sapiens, UniProt P11309); test: Kinase profiling; type: binding; settings: read-out: % Ctrl @ 1000 nM
DAPK2 = DAPK2 (Homo sapiens, UniProt Q9UIK4); test: Kinase profiling; type: binding; settings: read-out: % Ctrl @ 1000 nM
ANKK1 = ANKK1 (Homo sapiens, UniProt Q8NFD2); test: Kinase profiling; type: binding; settings: read-out: % Ctrl @ 1000 nM
Sequence of ANKK1 (Q8NFD2 whole entry): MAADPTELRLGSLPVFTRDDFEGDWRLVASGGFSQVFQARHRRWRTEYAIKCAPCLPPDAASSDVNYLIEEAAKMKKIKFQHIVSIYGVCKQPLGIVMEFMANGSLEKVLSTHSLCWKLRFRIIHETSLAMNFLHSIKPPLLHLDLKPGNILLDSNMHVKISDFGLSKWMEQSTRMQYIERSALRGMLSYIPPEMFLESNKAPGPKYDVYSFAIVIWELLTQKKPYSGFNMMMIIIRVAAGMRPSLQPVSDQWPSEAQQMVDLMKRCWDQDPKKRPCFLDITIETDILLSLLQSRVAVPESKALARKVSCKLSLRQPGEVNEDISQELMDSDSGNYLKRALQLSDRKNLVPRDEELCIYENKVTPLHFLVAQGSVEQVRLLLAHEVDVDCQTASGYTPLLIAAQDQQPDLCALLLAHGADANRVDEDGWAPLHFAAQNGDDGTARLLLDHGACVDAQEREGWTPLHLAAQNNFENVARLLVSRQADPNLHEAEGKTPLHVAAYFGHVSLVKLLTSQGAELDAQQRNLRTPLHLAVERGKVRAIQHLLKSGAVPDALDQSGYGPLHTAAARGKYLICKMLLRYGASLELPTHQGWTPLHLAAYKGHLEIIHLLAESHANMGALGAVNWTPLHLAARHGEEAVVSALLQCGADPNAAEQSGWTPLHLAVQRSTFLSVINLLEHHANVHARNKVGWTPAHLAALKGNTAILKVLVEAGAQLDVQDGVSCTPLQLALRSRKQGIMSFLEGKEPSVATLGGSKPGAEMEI

FLT3 = FLT3 (Homo sapiens, UniProt P36888); test: Kinase profiling; type: binding; settings: read-out: % Ctrl @ 1000 nM
ERBB3 = ERBB3 (Homo sapiens, UniProt P21860); test: Kinase profiling; type: binding; settings: read-out: % Ctrl @ 1000 nM
PKAC-alpha = PKAC-alpha (Homo sapiens, UniProt P17612); test: Kinase profiling; type: binding; settings: read-out: % Ctrl @ 1000 nM
PKN2 = PKN2 (Homo sapiens, UniProt Q16513); test: Kinase profiling; type: binding; settings: read-out: % Ctrl @ 1000 nM
Sequence of PKN2 (Q16513 whole entry): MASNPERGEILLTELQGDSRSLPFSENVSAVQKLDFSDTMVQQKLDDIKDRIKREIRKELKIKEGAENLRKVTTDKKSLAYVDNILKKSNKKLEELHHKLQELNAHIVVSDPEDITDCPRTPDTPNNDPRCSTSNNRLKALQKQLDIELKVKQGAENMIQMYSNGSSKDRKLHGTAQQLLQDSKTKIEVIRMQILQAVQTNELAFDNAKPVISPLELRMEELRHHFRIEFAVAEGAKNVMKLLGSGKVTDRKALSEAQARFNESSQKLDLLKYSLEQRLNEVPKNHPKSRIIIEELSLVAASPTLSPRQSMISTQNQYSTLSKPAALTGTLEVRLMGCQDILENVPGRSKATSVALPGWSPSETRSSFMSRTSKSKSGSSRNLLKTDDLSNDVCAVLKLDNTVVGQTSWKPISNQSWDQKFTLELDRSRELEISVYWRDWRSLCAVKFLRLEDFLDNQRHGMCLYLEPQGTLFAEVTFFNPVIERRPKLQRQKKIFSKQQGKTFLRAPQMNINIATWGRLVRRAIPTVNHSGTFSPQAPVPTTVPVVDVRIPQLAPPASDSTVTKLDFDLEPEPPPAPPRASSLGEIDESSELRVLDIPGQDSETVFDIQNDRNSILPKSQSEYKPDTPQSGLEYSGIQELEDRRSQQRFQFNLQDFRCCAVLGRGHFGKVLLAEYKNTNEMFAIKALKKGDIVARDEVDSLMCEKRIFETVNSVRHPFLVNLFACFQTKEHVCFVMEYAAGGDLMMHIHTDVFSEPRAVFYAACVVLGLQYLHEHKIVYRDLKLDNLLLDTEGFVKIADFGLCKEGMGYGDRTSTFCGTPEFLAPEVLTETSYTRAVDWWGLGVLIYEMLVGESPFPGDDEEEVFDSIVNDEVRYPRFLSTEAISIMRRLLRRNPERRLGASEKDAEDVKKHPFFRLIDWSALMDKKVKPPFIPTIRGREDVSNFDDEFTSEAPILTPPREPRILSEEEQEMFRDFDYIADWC

EGFR (T790M) = EGFR (T790M) (Homo sapiens, UniProt P00533, T790M); test: Kinase profiling; type: binding; settings: read-out: % Ctrl @ 1000 nM
PKMYT1 = PKMYT1 (Homo sapiens, UniProt Q99640); test: Kinase profiling; type: binding; settings: read-out: % Ctrl @ 1000 nM
Sequence of PKMYT1 (Q99640 whole entry): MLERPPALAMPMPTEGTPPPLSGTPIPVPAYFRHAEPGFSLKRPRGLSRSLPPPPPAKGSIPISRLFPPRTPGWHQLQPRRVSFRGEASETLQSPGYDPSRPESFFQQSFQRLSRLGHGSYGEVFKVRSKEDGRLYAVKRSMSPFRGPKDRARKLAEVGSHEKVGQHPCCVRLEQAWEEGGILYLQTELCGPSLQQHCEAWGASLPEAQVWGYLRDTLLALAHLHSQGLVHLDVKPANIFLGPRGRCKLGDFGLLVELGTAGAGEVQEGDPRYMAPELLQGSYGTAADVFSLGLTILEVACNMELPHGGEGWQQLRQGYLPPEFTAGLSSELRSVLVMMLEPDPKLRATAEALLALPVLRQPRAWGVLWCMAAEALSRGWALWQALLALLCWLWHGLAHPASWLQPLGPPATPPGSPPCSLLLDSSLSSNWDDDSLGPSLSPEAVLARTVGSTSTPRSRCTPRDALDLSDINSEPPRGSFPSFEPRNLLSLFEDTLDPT

EGFR = EGFR (Homo sapiens, UniProt P00533); test: Kinase profiling; type: binding; settings: read-out: % Ctrl @ 1000 nM
TXK = TXK (Homo sapiens, UniProt P42681); test: Kinase profiling; type: binding; settings: read-out: % Ctrl @ 1000 nM
CDK7 = CDK7 (Homo sapiens, UniProt P50613); test: Kinase profiling; type: binding; settings: read-out: % Ctrl @ 1000 nM
Sequence of CDK7 (P50613 whole entry): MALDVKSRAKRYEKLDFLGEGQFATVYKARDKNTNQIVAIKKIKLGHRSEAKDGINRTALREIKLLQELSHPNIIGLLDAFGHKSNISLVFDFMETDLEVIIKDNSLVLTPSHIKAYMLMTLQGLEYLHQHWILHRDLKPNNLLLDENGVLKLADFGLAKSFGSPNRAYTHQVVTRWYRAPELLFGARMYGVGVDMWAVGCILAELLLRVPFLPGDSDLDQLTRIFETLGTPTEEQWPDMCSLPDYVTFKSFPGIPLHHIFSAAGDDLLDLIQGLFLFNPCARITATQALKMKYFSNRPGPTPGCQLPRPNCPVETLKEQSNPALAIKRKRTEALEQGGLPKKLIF

BRAF (V600E) = BRAF (V600E) (Homo sapiens, UniProt P15056, V600E); test: Kinase profiling; type: binding; settings: read-out: % Ctrl @ 1000 nM
Sequence of BRAF (V600E) (P15056 whole entry V600E): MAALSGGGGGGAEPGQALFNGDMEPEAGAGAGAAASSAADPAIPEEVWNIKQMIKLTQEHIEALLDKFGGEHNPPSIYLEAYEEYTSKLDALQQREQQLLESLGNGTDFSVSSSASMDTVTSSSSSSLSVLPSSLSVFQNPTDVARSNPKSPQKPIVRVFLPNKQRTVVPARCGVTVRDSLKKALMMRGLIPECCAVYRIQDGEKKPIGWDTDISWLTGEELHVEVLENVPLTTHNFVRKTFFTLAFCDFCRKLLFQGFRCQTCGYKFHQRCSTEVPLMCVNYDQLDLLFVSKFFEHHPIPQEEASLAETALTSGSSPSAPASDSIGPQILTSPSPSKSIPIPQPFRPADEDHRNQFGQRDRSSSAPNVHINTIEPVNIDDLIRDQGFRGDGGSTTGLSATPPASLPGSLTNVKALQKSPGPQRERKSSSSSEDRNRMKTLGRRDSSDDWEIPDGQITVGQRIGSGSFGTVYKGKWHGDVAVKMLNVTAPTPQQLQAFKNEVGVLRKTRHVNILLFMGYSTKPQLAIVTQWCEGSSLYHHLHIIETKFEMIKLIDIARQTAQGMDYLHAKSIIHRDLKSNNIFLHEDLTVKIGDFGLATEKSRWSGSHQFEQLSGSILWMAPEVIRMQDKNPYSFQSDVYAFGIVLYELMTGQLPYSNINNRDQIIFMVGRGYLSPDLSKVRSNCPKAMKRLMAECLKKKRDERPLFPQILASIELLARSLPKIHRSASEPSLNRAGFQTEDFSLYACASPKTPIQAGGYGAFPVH

[2] = test system: CD3 (T cell surface marker); test: CD3 IHC test in MC-38 tumor; type: in vivo, mouse; settings: MC-38 tumors; vs vehicle group
Protocol: MC38 tumor tissues were collected at the end of the in vivo efficacy trial. The tumor tissue was then embedded in paraffin. The expression of CD3/CD4/CD8/F4-80 were tested by immunohistochemistry stain.

[3] = target: RSK4 (Kin.Dom.1-N-terminal) (Homo sapiens, UniProt Q9UK32); test: Kinase profiling; type: binding; settings: read-out: % Ctrl @ 1000 nM
Sequence of RSK4 (Kin.Dom.1-N-terminal) (Q9UK32 73-330 limits assumed): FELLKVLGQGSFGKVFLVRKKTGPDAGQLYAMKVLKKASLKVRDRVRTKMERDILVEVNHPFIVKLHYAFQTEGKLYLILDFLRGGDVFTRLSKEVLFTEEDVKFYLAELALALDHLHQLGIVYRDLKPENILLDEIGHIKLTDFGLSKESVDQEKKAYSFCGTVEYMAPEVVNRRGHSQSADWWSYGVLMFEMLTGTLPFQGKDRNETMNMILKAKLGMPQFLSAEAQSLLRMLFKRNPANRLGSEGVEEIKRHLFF

SgK110 = SgK110 (Homo sapiens, UniProt P0C264); test: Kinase profiling; type: binding; settings: read-out: % Ctrl @ 1000 nM
PIK3CA (M1043I) = PIK3CA (M1043I) (Homo sapiens, UniProt P42336, M1043I); test: Kinase profiling; type: binding; settings: read-out: % Ctrl @ 1000 nM
CAMK2D = CAMK2D (Homo sapiens, UniProt Q13557); test: Kinase profiling; type: binding; settings: read-out: % Ctrl @ 1000 nM
p38-beta = p38-beta (Homo sapiens, UniProt Q15759); test: Kinase profiling; type: binding; settings: read-out: % Ctrl @ 1000 nM
WNK3 = WNK3 (Homo sapiens, UniProt Q9BYP7); test: Kinase profiling; type: binding; settings: read-out: % Ctrl @ 1000 nM

Sequence of PIP5K2C (Q8TBX8 whole entry): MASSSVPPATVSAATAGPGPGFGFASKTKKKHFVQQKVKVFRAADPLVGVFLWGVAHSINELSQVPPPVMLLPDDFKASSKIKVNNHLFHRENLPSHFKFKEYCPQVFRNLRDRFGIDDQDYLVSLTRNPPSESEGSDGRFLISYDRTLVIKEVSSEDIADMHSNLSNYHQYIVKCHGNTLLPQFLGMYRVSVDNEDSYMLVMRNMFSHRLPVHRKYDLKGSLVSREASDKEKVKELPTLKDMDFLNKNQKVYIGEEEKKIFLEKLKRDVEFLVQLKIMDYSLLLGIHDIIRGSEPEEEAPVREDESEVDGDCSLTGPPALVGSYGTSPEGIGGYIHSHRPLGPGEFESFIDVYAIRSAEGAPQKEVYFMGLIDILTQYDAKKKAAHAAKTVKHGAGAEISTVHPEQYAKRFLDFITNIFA

Cc1cc(Oc2cc(NC(=O)C3CC3)ncn2)ccc1NC(=O)Nc1ccc(Cl)c(C(F)(F)F)c1 [CBT-102]
remaining activity at 1 µM (PIP5K2C): 85% | remaining activity at 1 µM (TLK1): 100% | remaining activity at 1 µM (MAP3K15): 99% | remaining activity at 1 µM (MKNK1): 100% | remaining activity at 1 µM (MAP3K2): 90% | remaining activity at 1 µM (HPK1): 23% | remaining activity at 1 µM (GRK1): 100% | remaining activity at 1 µM (NEK9): 96% | remaining activity at 1 µM (CSNK1G1): 100% | remaining activity at 1 µM (MEK2): 76% | remaining activity at 1 µM (PIP5K1A): 100% | remaining activity at 1 µM (STK16): 100% | remaining activity at 1 µM (PRKCD): 100% | remaining activity at 1 µM (STK33): 63% | remaining activity at 1 µM [1]: 52% | remaining activity at 1 µM (CAMK1): 74% | remaining activity at 1 µM (CLK4): 95% | remaining activity at 1 µM (STK39): 100% | remaining activity at 1 µM (PIM1): 95% | remaining activity at 1 µM (DAPK2): 95% | remaining activity at 1 µM (ANKK1): 100% | remaining activity at 1 µM (FLT3): 2.3% | remaining activity at 1 µM (ERBB3): 100% | remaining activity at 1 µM (PKAC-alpha): 97% | remaining activity at 1 µM (PKN2): 100% | remaining activity at 1 µM (EGFR (T790M)): 94% | remaining activity at 1 µM (PKMYT1): 97% | remaining activity at 1 µM (EGFR): 76% | remaining activity at 1 µM (TXK): 100% | remaining activity at 1 µM (CDK7): 25% | remaining activity at 1 µM (BRAF (V600E)): 1.8% | effect on T cell surface marker CD3 (IHC) [2]: no significant effect | remaining activity at 1 µM [3]: 100% | remaining activity at 1 µM (SgK110): 98% | remaining activity at 1 µM (PIK3CA (M1043I)): 100% | remaining activity at 1 µM (CAMK2D): 93% | remaining activity at 1 µM (p38-beta): 0% | remaining activity at 1 µM (WNK3): 100%
